As a reminder, the CLint scaled is the capacity of the preparation to metabolise the compound, expressed as a volume cleared per time. A high value points to rapid turnover. By microsomal CLint is commonly meant a measure of how fast metabolising enzymes remove a compound, apart from limits set by blood flow. Read a low microsomal CLint as slow turnover. Usually half-life stands for how long it takes for the measured level to halve.

Molecules are shown by their SMILES. Read-outs that look alike come from different tables or passages of the source.

The values that follow come from US12290513B2, “Therapeutic methods and compositions for treating movement disorders” (Vima Therapeutics, Inc., priority 2023, dated 2025).

Data set [1] in a line: Whole blood stability, dog. Here is the method: Procedures for blood Stability. • A. 398 μL of blood from each species was added to an incubation plate, which was pre-warmed at 37C for 15 minutes. • B. After the pre-incubation, 2 μL of working solution (test compounds or control compounds) was spiked to 398 μL of blood to reach a final concentration of 1 μM for test compounds and 5 μM for control compounds. The final concentration of organic solvents is 0.5%. The assays were performed in duplicate. • C. The reaction samples were incubated at 37C. • D. Aliquots of 50 μL were taken from the reaction samples at 0, 15, 30, 60 and 120 minutes. The reaction was stopped by the addition of 50 μL ultrapure water and 400 μL cold acetonitrile. • E. All samples were vortexed for 10 minutes, followed by centrifugation at 3,220 g for 40 minutes to precipitate proteins. 100 μL of the supernatant was then transferred to a new plate. The supernatant was diluted with ultrapure water as needed for detection by LC-MS/MS. Sample Analysis
Samples were analyzed by LC-MS/MS to measure the concentration of the test compounds.
All calculations were carried out using Microsoft Excel and according to standard analysis methods that are known in the art.

Data set [2] can be described thus: Liver microsome stability, human. Particulars: for CLint scaled at 1 μM / microsomal CLint at 1 μM / half-life at 1 μM: liver microsomes; for CLint scaled at 1 μM: Scale-up CLint; for microsomal CLint at 1 μM: in vitro CLint; for half-life at 1 μM: in vitro t1/2, human liver microsomes. As for the experimental part: (§1) For the liver microsome assay: • 1. The master solution was prepared according to Table 3. All liver microsome samples were purchased from BD Gentest.
(§2) • 2. Two separate experiments were performed as follows: (i) With Cofactors (NADPH): 25 μL of 10 mM NADPH was added to the incubations. […] The reaction was started with the addition of 2.5 μL of 100 μM control compound or test compound solutions. […] Aliquots of 30 μL were taken from the reaction solution at 0.5, 5, 15, 30 and 60 minutes. The reaction was stopped by the addition of 5 volumes of cold acetonitrile with IS (100 nM alprazolam, 200 nM caffeine and 100 nM tolbutamide). Samples were centrifuged at 3,220 g for 40 minutes. Aliquots of 100 μL of the supernatant was mixed with 100 μL of ultra-pure H2O and then used for LC-MS/MS analysis to detect the levels of the test compound. • 5. All calculations were carried out using Microsoft Excel and according to standard analysis methods that are known in the art.
Background: Microsomes from liver hold many membrane-bound enzymes, among them those of drug oxidation.

A short description of data set [3]: Liver microsome stability, dog. Conditions: for CLint scaled at 1 μM / microsomal CLint at 1 μM / half-life at 1 μM: liver microsomes; for CLint scaled at 1 μM: Scale-up CLint; for microsomal CLint at 1 μM: in vitro CLint; for half-life at 1 μM: in vitro t1/2, dog liver microsomes. As for the experimental part: as §1, §2
A short description of data set [4]: Liver microsome stability, rat. Particulars: for CLint scaled at 1 μM / microsomal CLint at 1 μM / half-life at 1 μM: liver microsomes; for CLint scaled at 1 μM: Scale-up CLint; for microsomal CLint at 1 μM: in vitro CLint; for half-life at 1 μM: in vitro t1/2, rat liver microsomes. Here is the method: as §1, §2
In data set [5] the test system is haloperidol-induced catalepsy. Put plainly: Haloperidol-induced catalepsy (bar test). The data set is classed as in vivo, Sprague Dawley rats. Particulars: for time spent holding bar, haloperidol-induced catalepsy: rats, haloperidol 1 mg/kg sc, Rac-THP 10, 20, 30 mg/kg, R-THP or S-THP 5, 10, 15 mg/kg ip. Here is the method: Animals: Adult male Sprague Dawley rats (230-235 g) from Envigo were used in this study. Upon receipt, rats were group housed in ventilated cages and acclimated for one week prior to testing.
The front paws of a rat were placed then on a horizontal metal bar raised 6″ above a Plexiglas platform. Each rat underwent 3 trials of 60 seconds each. The test ended when the animal's front paws return to the platform or after 60 seconds. Rats were tested at 30 and 60 minutes after treatment.
Data were analyzed by one-way analysis of variance (ANOVA) followed by Tukey's post-hoc comparisons, where appropriate. Data are represented as mean and standard error to the mean (SEM).

The procedure of data set [6]:
The resulting metabolites were analyzed by liquid chromatography-mass spectrometry, and metabolite peaks were detected and measured.

Data set [7] addresses M2 (h) (antagonist radioligand) (Homo sapiens, UniProt P08172). Conditions: at the tested concentration; negative values set to zero.
Data set [8] has as its target kappa (h) (KOP) (agonist radioligand) (Homo sapiens, UniProt P41145). Conditions: at the tested concentration, negative values set to zero.
Data set [9] concerns the target D2L (h) (antagonist radioligand) (Homo sapiens, UniProt P14416). Particulars: at the tested concentration; negative values set to zero.
In data set [10] the target is T1, CYP1A2 (Homo sapiens, UniProt P05177).
T1 sequence (P05177 1-516): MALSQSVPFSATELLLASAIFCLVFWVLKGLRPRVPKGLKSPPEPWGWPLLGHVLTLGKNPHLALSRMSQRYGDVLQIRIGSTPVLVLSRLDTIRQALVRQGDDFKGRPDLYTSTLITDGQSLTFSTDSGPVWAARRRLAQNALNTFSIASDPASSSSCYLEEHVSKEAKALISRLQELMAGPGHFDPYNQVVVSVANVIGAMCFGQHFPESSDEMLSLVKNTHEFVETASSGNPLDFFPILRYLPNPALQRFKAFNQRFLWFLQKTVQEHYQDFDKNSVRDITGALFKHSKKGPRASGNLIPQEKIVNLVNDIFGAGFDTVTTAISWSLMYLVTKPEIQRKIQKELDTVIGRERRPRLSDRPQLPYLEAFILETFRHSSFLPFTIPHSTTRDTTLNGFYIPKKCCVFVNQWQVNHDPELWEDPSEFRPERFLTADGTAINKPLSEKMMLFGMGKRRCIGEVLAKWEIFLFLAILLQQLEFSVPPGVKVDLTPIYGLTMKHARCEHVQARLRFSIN
The data set is described as follows: Incubation with recombinant CYP1A2.

Data set [11] has as its target CYP2C19 (Homo sapiens, UniProt P33261). The data set is described as follows: Incubation with recombinant CYP2C19.
Data set [12] deals with Cerep87 Safety Panel receptors. The data set is described as follows: Cerep87 Safety Panel (Eurofins), whole panel statements. The data set is classed as binding.
Setting [13] is: human, human liver microsomes, Example 15, Table 20.
The mark [14] stands for this setting: dog, dog liver microsomes, Example 15, Table 20.
[15] abbreviates: rat, rat liver microsomes, Example 15, Table 20.

kappa (h) (KOP) (agonist radioligand), sequence (P41145 whole entry): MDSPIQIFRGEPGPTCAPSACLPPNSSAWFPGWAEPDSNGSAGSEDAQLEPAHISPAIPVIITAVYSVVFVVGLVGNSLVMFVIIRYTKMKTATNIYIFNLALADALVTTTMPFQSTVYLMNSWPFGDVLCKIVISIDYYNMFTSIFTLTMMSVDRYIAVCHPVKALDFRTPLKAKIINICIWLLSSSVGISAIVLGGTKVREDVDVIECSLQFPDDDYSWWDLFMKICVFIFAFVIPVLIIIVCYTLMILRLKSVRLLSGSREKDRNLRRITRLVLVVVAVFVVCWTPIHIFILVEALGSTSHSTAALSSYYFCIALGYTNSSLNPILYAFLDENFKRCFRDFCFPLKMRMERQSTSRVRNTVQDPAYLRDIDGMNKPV
M2 (h) (antagonist radioligand), sequence (P08172 whole entry): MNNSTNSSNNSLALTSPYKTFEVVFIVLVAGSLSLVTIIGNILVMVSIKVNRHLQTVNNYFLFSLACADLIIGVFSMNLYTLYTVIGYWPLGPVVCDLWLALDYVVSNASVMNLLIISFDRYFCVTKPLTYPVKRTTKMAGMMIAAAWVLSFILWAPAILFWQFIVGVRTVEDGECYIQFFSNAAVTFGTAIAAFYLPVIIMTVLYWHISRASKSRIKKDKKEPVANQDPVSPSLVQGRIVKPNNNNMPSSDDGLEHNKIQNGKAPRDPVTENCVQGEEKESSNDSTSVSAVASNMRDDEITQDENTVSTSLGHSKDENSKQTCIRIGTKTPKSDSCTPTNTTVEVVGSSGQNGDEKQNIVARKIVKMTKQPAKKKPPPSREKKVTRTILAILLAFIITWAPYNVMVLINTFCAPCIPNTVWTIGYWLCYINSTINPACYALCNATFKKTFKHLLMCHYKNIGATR
CYP2C19, sequence (P33261 whole entry): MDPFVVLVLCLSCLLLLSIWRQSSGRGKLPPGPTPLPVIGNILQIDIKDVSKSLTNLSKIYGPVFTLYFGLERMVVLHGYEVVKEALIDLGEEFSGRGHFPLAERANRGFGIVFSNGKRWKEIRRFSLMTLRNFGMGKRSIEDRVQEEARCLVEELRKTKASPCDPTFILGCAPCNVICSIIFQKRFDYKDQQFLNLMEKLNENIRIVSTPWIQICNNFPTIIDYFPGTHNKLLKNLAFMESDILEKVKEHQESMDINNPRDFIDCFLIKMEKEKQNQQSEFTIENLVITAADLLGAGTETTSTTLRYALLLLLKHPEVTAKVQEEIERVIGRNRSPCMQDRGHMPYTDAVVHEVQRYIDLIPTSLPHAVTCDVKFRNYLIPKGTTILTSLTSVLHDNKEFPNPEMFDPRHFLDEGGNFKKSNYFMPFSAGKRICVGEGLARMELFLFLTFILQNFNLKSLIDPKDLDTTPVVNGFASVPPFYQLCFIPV
D2L (h) (antagonist radioligand), sequence (P14416 whole entry): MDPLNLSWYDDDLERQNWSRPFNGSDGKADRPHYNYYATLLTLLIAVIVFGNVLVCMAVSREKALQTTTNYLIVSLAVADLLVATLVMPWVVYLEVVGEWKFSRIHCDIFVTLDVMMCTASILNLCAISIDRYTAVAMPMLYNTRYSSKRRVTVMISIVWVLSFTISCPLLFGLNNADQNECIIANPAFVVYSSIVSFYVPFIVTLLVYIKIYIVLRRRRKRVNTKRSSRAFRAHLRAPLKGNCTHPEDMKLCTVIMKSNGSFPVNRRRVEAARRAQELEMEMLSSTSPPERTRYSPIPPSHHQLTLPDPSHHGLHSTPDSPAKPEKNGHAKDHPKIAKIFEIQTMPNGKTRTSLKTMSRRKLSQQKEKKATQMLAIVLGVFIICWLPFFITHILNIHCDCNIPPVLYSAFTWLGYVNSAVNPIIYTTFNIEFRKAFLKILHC

Turning to `O[C@@](CCN1CCCCC1)(c1ccccc1)C1CCCCC1` [(R)-THP, (R)-trihexyphenidyl], in data set [1] (dog whole blood, 37C), the “Remaining Percentages (%) 0 min” value is reported as 100.00%. Further, in [1] (dog whole blood, 37C), the t1/2 entry is reported as “∞”. Besides, the CLint scaled at 1 μM in data set [2] (setting [13]) was 20.4 mL/min/kg; in data set [2] (human, human liver microsomes, Table 5), 21.8 mL/min/kg; in data set [3] (setting [14]) it was 318 mL/min/kg; in data set [3] (dog, dog liver microsomes, Table 5) it was 257 mL/min/kg; in [4] (setting [15]), 5330 mL/min/kg; in data set [4] (rat, rat liver microsomes, Table 5) it was 5810 mL/min/kg. The microsomal CLint at 1 μM came to 21.2 µL/min/mg in [2] (human, human liver microsomes, with NADPH, Table 5); 19.9 µL/min/mg in data set [2] (setting [13]); 146 µL/min/mg in data set [3] (dog, dog liver microsomes, with NADPH, Table 5); 180 µL/min/mg in [3] (setting [14]); 2380 µL/min/mg in [4] (rat, rat liver microsomes, with NADPH, Table 5); 2190 µL/min/mg in data set [4] (setting [15]). The half-life at 1 μM in data set [2] (human, with NADPH, 1 μM, Table 5) turned out to be 65.8 min; in data set [2] (human, Example 15, Table 20) it was 69.7 min; in data set [3] (dog, with NADPH, 1 μM, Table 5) it was 9.51 min; in data set [3] (dog, Example 15, Table 20), 7.69 min; in data set [4] (rat, with NADPH, 1 μM, Table 5), 0.58 min; in data set [4] (rat, Example 15, Table 20), 0.63 min. The “time spent holding bar, haloperidol-induced catalepsy” value in data set [5] (30 minutes after injection) and in data set [5] (60 minutes after injection) was “significantly attenuated haloperidol-induced catalepsy” in each case. Further, in data set [5] (catalepsy control, FIG. 6), the “Efficacy of R-THP versus Rac-THP over a dosage range” value is given as “half a dose of R-THP controls catalepsy at least as effectively as a full dose of Rac-THP”. The metabolites detected result in [6] was “no (R)-THP metabolites were present at a significant level above parent molecule”. The “signal, M2 (h) (antagonist radioligand)” value in data set [7] came to 98.95%. Moreover, the figures for the “signal, kappa (h) (KOP) (agonist radioligand)” value in data set [8] and in [8] (listed as R-THP) were “greater than 25%” and 26.19%, respectively. Also, the “signal, D2L (h) (antagonist radioligand)” value in data set [9] stood at 0.32%. Also, the CLint in [10] was 0.00 µL/min/pmol. The results for the “Substrates of CYP1A2” value in data set [10] and in data set [10] (listed as R) were “not metabolized” and “no R”, respectively. The “Substrates of CYP2C19” value in data set [11] was “Rac, R and S”.
Take `C[C@@H](C[N+](C)(C)C)OC(N)=O.[Cl-]` [(S)-BTC, (S)-bethanechol]: the “Remaining Percentages (%) 0 min” value in data set [1] (dog whole blood, 37C) was found to be 100.00%. Besides, the t1/2 entry in [1] (dog, blood) was “∞”. Further, the “Predicted Hepatic CLH” value in data set [2] (human liver microsomes, Table 5) is given as 0.00 mL/min/kg; in data set [3] (dog liver microsomes, Table 5) it was 0.00 mL/min/kg; in [4] (rat liver microsomes, Table 5) it was 0.00 mL/min/kg. For the same compound, the “in vitro t1/2” value was “∞” in data set [2] (human, microsomes); “∞” in data set [3] (dog, microsomes); “∞” in [4] (rat, microsomes). Moreover, the “antagonism at muscarinic receptors of the panel” value in data set [12] (only muscarinic receptors) is “greater than 50%”.
Consider `O[C@](CCN1CCCCC1)(c1ccccc1)C1CCCCC1` [(S)-THP, (S)-trihexyphenidyl], for which the CLint scaled at 1 μM was 58.9 mL/min/kg in [2] (setting [13]), 429 mL/min/kg in data set [3] (setting [14]) and 1870 mL/min/kg in data set [4] (setting [15]). Besides, the results for the microsomal CLint at 1 μM in data set [2] (setting [13]), in data set [3] (setting [14]) and in data set [4] (setting [15]) were 57.3 µL/min/mg, 244 µL/min/mg and 768 µL/min/mg, respectively. The half-life at 1 μM in data set [2] (human, Example 15, Table 20) came to 24.2 min; in data set [3] (dog, Example 15, Table 20), 5.72 min; in data set [4] (rat, Example 15, Table 20), 1.8 min. Besides, the “non-muscarinic receptors signaled through” value in [12] (greater than 25% signal) is recorded as “nine”. Besides, the “time spent holding bar, haloperidol-induced catalepsy” value is “did not significantly differ from those of haloperidol-treated rats” in [5] (30 minutes after injection) and “no significant differences” in [5] (60 minutes after injection). Also, the metabolites detected entry in data set [6] (human) is “two metabolites 18 and 19 were detected at substantial levels”. For the same compound, the “signal, M2 (h) (antagonist radioligand)” value in data set [7] stood at 77.76%. In addition, the “signal, kappa (h) (KOP) (agonist radioligand)” value in data set [8] is 34.64%. For the same compound, the “signal, D2L (h) (antagonist radioligand)” value in data set [9] was determined as 28.50%. For the same compound, the CLint in [10] is 0.20 µL/min/pmol. Also, the “Substrates of CYP1A2” value was “is metabolized” in data set [10]; “S and Rac” in data set [10] (listed as S). The half-life in data set [10] (human) worked out at 34.6 min. The “Substrates of CYP2C19” value in data set [11] is “Rac, R and S”.
